Laboratory results as given in patent US20140187570A1, “NOVEL FORMULATIONS OF PYRIMETHANIL, AND THEIR USE IN TREATMENT OF CROPS” (XEDA INTERNATIONAL, priority 2011, published 2014).

Key:
[1] = system: Geotrichum candidum; assay: Fungicidal activity on treated oranges (Example 5); assay type: in vivo; conditions: oranges treated with pyrimethanil alone
Method: Oranges are separated into three lots, and are treated as follows: • Lot 1 (control): oranges not treated; • Lot 2: oranges treated with pyrimethanil alone; • Lot 3: oranges treated with 250 g of the formulation according to Example 2 diluted in one hectolitre of water.

[2] = system: Monilinia fructicola strain resistant to pyrimethanil; assay: In vitro growth inhibition of the halo on PDA Petri dishes, resistant strain; assay type: cell-based; conditions: dose 250 ml/hl
Method: The object of the study was to determine the efficacy of combinations according to the invention against the phytopathogenic fungus Monilinia fructicola, compared to pyrimethanil alone.
The efficacy of the combinations against Monilinia fructicola was determined by determining the inhibition of growth of the halo in accordance with various general methods (ISO 6887: 2003; ISO 7218: 2007; ISO 7954: 1987).
The samples were added to the artificial medium and were mixed gently prior to the solidification of the agar solution.
A small quantity of fungal spores was placed at the centre of the potato dextrose agar (PDA) in Petri dishes at 25±1° C. for 5-6 days. At the end of the incubation, the inhibition of the halo formed was measured, compared with untreated PDA Petri dishes (control).
The results are expressed as the percentage of incidence of the infestation, and the percentage of efficacy of the product tested.
Monilinia fructicola—Strain Resistant to Pyrimethanil: […]

## Cc1cc(C)nc(Nc2ccccc2)n1 [pyrimethanil alone, 2-anilino-4,6-dimethylpyrimidine]
[1]
  level of Geotrichum candidum compared with control lot: same level of Geotrichum candidum as the control lot
[2]
  Efficacy (%): 45%
